Test results published in publication PMC4995014, “Identification of ABC Transporter Interaction of a Novel Cyanoquinoline Radiotracer and Implications for Tumour Imaging by Positron Emission Tomography” (PLoS ONE, 2016).

Legend:
MCF7 cells [1] = assay: SRB cell viability assay in MCF7 cells; type: cell-based; details: Homo sapiens, 72 h
Description: (§1) Cell viability by the sulforhodamine B (SRB) assay was used to assess cell growth and cytotoxicity of test compounds [29]. Cells were seeded at densities of 3,500 to 5,000 cells per well in 96 well plates overnight and pre-treated for 1 h with ABC transporter modulators: 10 μM fumitremorgin C (FTC; in MCF7MX and MCF7 cells), or 0.3 μM of zosuquidar (in 3T3 and 3T3-MDR1). Cells were then treated with test compounds for 72 h, at 37°C. After drug treatment, cells were fixed by addition of 50% trichloroacetic acid (TCA), and the plates washed and dried to allow staining with 0.4% solution of sulforhodamine B (Sigma) in 1% acetic acid for 30 minutes. Excess dye was removed upon washing with 1% acetic acid. Plates were dried and bound protein was solubilised upon addition of 150 μL of 10 mM Tris base buffer. Absorbance was measured at 540 nm using Thermo Multiskan-Ex plate reader. Cell viability versus compound concentration curves were plotted as a percentage of control cells. The concentration of drug that gave 50% inhibition in cell growth (GI50) was extrapolated from these curves using the sigmoid curve fit with variable slope in Prism (GraphPad Prism version 5.01, GraphPad Software, San Diego California USA). Three to six replicate wells were used for each drug concentration and experiments were carried out on three separate occasions for each compound.

Caco2 transwell assay = type: in vitro ADME, human; details: human; for efflux ratio at 120 min: Caco-2, no inhibitor, 10 μM cyanoquinoline or 50 μM vinblastine, read-out: efflux ratio (Papp B-A / Papp A-B)
Description: The caco2 transwell assay was performed to assess permeability. Cells were seeded at a density of 60,000 cells per well in 24 well transwell plates (Millipore, Billerica, Massachutsetts, USA), and maintained in DMEM supplemented with […] glucose (20% FBS, 1% penicillin/streptomycin, 1% glutamine) for 21 days at 37°C in 5% CO2. After 21 days the cells differentiate into enterocytes and express all three MDR proteins, ABCB1 and ABCG2 at the apical side and ABCC1 on the basal side. On day 21, cells were washed three times with Hank's Balanced Salt Solution (HBSS) (Fisher scientific, Loughborough, UK) and the trans-epithelial electric resistance (TERR) was measured using an Epithelial Voltohmmeter (EVOM) (World Precision Instruments, Sarasota, USA); only transwells with TERR of 400 Ω/cm^2 or above were used for the experiment. Cells were treated either at the apical (n = 3) or basal (n = 3) side of the transwell by addition of 10 μM of cyanoquinoline compound or 50 μM vinblastine prepared in a volume of 400 μL HBSS (compound added to apical well) or 800 μL of HBSS (added to basal well). When transport inhibitors FTC (10 μM) or zosuquidar (0.3 μM) were used, they were added to both the apical and basal wells 1 h prior to drug treatment. After 1 h pre-treatment the medium was removed and cells were treated with the compounds prepared in HBSS containing FTC or Zosuquidar.
Plates were incubated in shaker incubator at 37°C and 60 rpm for 120 min. After incubation, 200 μL aliquots from the apical and the basal wells were collected and analysed using high performance liquid chromatography (HPLC). Samples were run on a Millipore Waters HPLC system which included a 717 plus autosampler and 2487 dual wavelength absorbance detector system. The stationary phase comprised of a Phenomenex Luna C18 reverse phase column (150 X 4.6 mm; 5 μm particle size). The mobile phase comprised water (0.1% TFA) and acetonitrile (0.1% TFA) (80:20 v/v) at a flow rate of 1 mL/min for all compounds except vinblastine. For vinblastine, the stationary phase comprised a Supelcosil LC-ABZ reverse phase column (5 × 4.6 mm; 5 μm particle size). The mobile phase comprised water (0.1% formic acid) and methanol (90:10 to 10:90 v/v gradient over 20 min). Peak areas corresponding to the compounds of interest were recorded. Using standard curves the areas under the curve were converted into concentrations of compound. The permeability coefficient (Papp) was calculated using the following equation [30]: Papp = (dQ/dt)/A C0, where A is the surface area of the transwell membrane in cm^2 (= 0.33 cm^2), C0 is the drug concentration in the donor chamber at time t = 0 and dQ/dt is the rate of transfer of the compound to the receiver chamber, determined from the slope of the graph concentration (dQ) versus time (dt). Papp values corresponding to absorption and secretion were assessed and used to calculate efflux ratio. Efflux ratio =(Papp B−A)/(Papp A−B) Where Papp A-B = Papp absorption and Papp B-A = Papp secretion.
The integrity of the caco2 cell membrane was assessed for each well following the experiment by addition of a 100 μM solution of […] (Sigma) in HBSS to the apical side of the plate. The plates were placed in the shaker incubator for 1 h at 37°C and 60 rpm. Samples from the basal wells were transferred into a 96 well plate and the levels of […] were assessed by measuring with an excitation of 450 nm and an emission of 540 nm using the PerkinElmer Wallac 1420 counter.

MCF7MX cells [2] = assay: SRB cell viability assay in MCF7MX cells (ABCG2 overexpressing); type: cell-based, human; details: for fold increase in GI50 in the ABCG2 overexpressing cell line: GI50 MCF7MX over GI50 MCF7, without FTC; for GI50: Homo sapiens, MCF7/MX, 72 h, SRB
Description: as §1

3T3-MDR1 cells [3] = assay: SRB cell viability assay in 3T3-MDR1 cells (ABCB1 expressing); type: cell-based; details: GI50 3T3-MDR1 over GI50 3T3, without zosuquidar
Description: as §1

ABCB1 (MDR1) = assay: as above; type: cell-based; details: mouse, 3T3-MDR1 cells (ABCB1 expressing), 72 h, SRB
Description: as §1

3T3 cells [4] = assay: SRB cell viability assay in 3T3 cells; type: cell-based; details: Mus musculus, NIH3T3, 72 h
Description: as §1

3T3-MDR1 cells [5] = assay: Cell uptake assay in 3T3-MDR1 cells; type: cell-based
Description: (§2) [^18F]FED6 and [^18F]FED20 were synthesised as previously reported. To increase specific radioactivity of [^18F]FED20, we modified the synthesis by decreasing the amount of alkyne precursor from 1 mg down to 0.5 mg. While this had the desired effect of increasing the specific activity from 7.3 GBq/μmol up to 52 GBq/μmol, the conversion of the alkyne to the triazole product dropped from > 95% down to 45%. Cells were seeded in 6 well plates and [^18F]FED6 (0.22 MBq) or [^18F]FED20 (0.55 MBq or 0.74 MBq) added to each well and incubated at 37°C for 1 h. Media were then removed and cells were washed twice with PBS. The cells were trypsinised and centrifuged for 3 minutes at 2000 rpm to obtain a pellet. The cell pellet was washed once with PBS and resuspended in 200 μL of RIPA buffer. Cell lysates were transferred to gamma counting tubes and the radioactivity in the pellet was measured on a Packard Cobra II gamma counter, (Perkin-Elmer, Waltham, Massachusetts, USA). Protein concentrations of samples were evaluated using Pierce® BCA Protein Assay Kit (Thermo Scientific, Waltham, Massachusetts, USA). Data were expressed as background- and decay-corrected counts per minute (CCPMA) per μg of cellular protein.

H358 cells = assay: Cell uptake assay in H358 cells; type: cell-based; details: 1 h incubation with 0.22 MBq
Description: as §2

3T3 cells [6] = assay: Cell uptake assay in 3T3 cells; type: cell-based; details: 1 h incubation with 0.22 MBq
Description: as §2

MCF7MX cells [7] = assay: Cell uptake assay in MCF7MX cells; type: cell-based, human
Description: SiRNA transfections were carried out using ON TARGET plus-SMARTpool siRNA or non-targeting siRNA (Dharmacon, Lafayette, Louisianna, USA); ABCG2, L-009924-00-0005 and scramble (non-targeting) D-001810-10-05. Lipofectamine RNAiMAX (Invitrogen UK) was used as the transfection reagent and was prepared as indicated on the product protocol. Cells were seeded in black 96 well plates in antibiotic free media. On the day of transfection, siRNA and Lipofectamine were separately diluted in opti-MEM media, mixed in a 1 to 1 ratio and incubated at room temperature for 20 min; the siRNA-Lipofectamine complexes were then added to the cells. Fresh media containing 1% penicillin streptomycin was added to the cells after 24 h followed by Hoechst fluorescent assays at 72 h.
as §2

MCF7 cells [8] = assay: Cell uptake assay in MCF7 cells; type: cell-based, human; details: 1 h incubation with 0.22 MBq
Description: as §2

[9] = 1 h pre-treatment with 10 μM FTC
[10] = with zosuquidar 0.3 μM (1 h pre-treatment), pre-treatment with 0.3 μM zosuquidar
[11] = pre-treatment with 0.3 μM zosuquidar

SMILES	GI50 (MCF7 cells [1]; [9])	GI50 (MCF7 cells [1]; without FTC)	efflux ratio at 120 min (Caco2 transwell assay)	fold increase in GI50 in the ABCG2 overexpressing cell line (MCF7MX cells [2])	GI50 (MCF7MX cells [2]; [9])	GI50 (MCF7MX cells [2]; without FTC)	fold increase in GI50 in the ABCB1 overexpressing cell line (3T3-MDR1 cells [3])	GI50 at 72 h (ABCB1 (MDR1); [10])	GI50 at 72 h (ABCB1 (MDR1); without zosuquidar)	GI50 (3T3 cells [4]; [11])	GI50 (3T3 cells [4]; without zosuquidar)	other results
CCOc1cc2ncc(C#N)c(Nc3ccc(F)c(Cl)c3)c2cc1NC(=O)/C=C/CN(C)C [EKB-569, pelitinib, reference compound]	2.55 ± 0.04 µM	2.61 ± 0.07 µM	> 3	1.7 fold	1.54 ± 0.06 µM	4.28 ± 0.23 µM	5.4 fold	2.7 ± 0.8 µM	5.75 ± 0.7 µM	1.15 ± 0.6 µM	1.06 ± 0.6 µM	
O=C1c2c(O)ccc(O)c2C(=O)c2c(NCCNCCO)ccc(NCCNCCO)c21 [Mitoxantrone, reference compound]	6.62 ± 3.82 µM	10.7 ± 6.18 µM			22.8 ± 13.1 µM	2500 ± 1440 µM		57 ± 1 µM	141 ± 1 µM	197 ± 0.6 µM	37 ± 0.8 µM	
CC[C@]1(O)C[C@@H]2CN(CCc3c([nH]c4ccccc34)[C@@](C(=O)OC)(c3cc4c(cc3OC)N(C)[C@H]3[C@@](O)(C(=O)OC)[C@H](OC(C)=O)[C@]5(CC)C=CCN6CC[C@]43[C@@H]65)C2)C1 [Vinblastine, reference compound]	0.00536 ± 0.00063 µM	0.00512 ± 0.00074 µM			0.00266 ± 0.00066 µM	0.00208 ± 0.00041 µM		0.0011 ± 0.0011 µM	0.219 ± 0.0008 µM	0.0015 ± 0.0012 µM	0.0018 ± 0.001 µM	efflux ratio at 120 min, 50 μM (Caco2 transwell assay; Caco-2, pre-treatment with zosuquidar, read-out: efflux (permeability) ratio after pre-treatment with zosuquidar): 1.7
CCOc1cc2ncc(C#N)c(Nc3ccc(F)c(Cl)c3)c2cc1NC(=O)/C=C/CNCc1cn(CC[18F])nn1 [[^18F]FED6, [^18F](2E)-N-{4-[(3-chloro-4-fluorophenyl)amino]-3-cyano-7-ethoxyquinolin-6-yl}-4-({[1-(2-fluoroethyl)-1H-1,2,3-triazol-4-yl]methyl}amino)-but-2-enamide]												fold increase of uptake in 3T3-MDR1 cells following zosuquidar pre-treatment (3T3-MDR1 cells [5]; 0.3 μM zosuquidar for 1 h): 19 fold; protein normalised uptake in 3T3-MDR1 cells (3T3-MDR1 cells [5]; 1 h incubation with 0.22 MBq): 0.7 CCPMA/μg of protein; protein normalised uptake in H358 cells (H358 cells): 86 CCPMA/μg of protein; protein normalised uptake in 3T3 cells (3T3 cells [6]): 22 CCPMA/μg of protein; uptake in MCF7MX cells following ABCG2 siRNA (MCF7MX cells [7]; 25 nM ABCG2 siRNA 72 h, 1 h incubation with 0.22 MBq): 3.5 CCPMA/μg protein; uptake in scramble siRNA transfected MCF7MX cells (MCF7MX cells [7]; 25 nM scrambled siRNA 72 h, 1 h incubation with 0.22 MBq): 0.6 CCPMA/μg protein; fold increase of uptake in MCF7MX cells following FTC pre-treatment (MCF7MX cells [7]; 10 μM FTC for 1 h): 4 fold; uptake in MCF7MX cells following FTC pre-treatment (MCF7MX cells [7]; 10 μM FTC for 1 h, 1 h incubation with 0.22 MBq): 6 CCPMA/μg protein; uptake in MCF7MX cells following gefitinib pre-treatment (MCF7MX cells [7]; 10 μM gefitinib for 1 h, 1 h incubation with 0.22 MBq): 6.3 CCPMA/μg protein; protein normalised uptake in MCF7MX cells (MCF7MX cells [7]; 1 h incubation with 0.22 MBq): 7.7 CCPMA/μg of protein; protein normalised uptake in MCF7 cells (MCF7 cells [8]): 81 CCPMA/μg of protein

Further lines, with some results ahead:

GI50 (MCF7 cells [1]; [9])	GI50 (MCF7 cells [1]; without FTC)	efflux ratio at 120 min (Caco2 transwell assay)	fold increase in GI50 in the ABCG2 overexpressing cell line (MCF7MX cells [2])	GI50 (MCF7MX cells [2]; [9])	GI50 (MCF7MX cells [2]; without FTC)	SMILES	fold increase in GI50 in the ABCB1 overexpressing cell line (3T3-MDR1 cells [3])	GI50 at 72 h (ABCB1 (MDR1); [10])	GI50 at 72 h (ABCB1 (MDR1); without zosuquidar)	GI50 (3T3 cells [4]; [11])	GI50 (3T3 cells [4]; without zosuquidar)	other results
14.8 ± 8.54 µM	14.9 ± 8.6 µM	> 3	3.2 fold	10.3 ± 5.95 µM	27.6 ± 15.9 µM	CCOc1cc2ncc(C#N)c(Nc3ccc(F)c(Cl)c3)c2cc1NC(=O)/C=C/CNC [FED2]	5.1 fold	5.9 ± 0.6 µM	36 ± 1.1 µM	4.5 ± 0.8 µM	7 ± 1.2 µM	
11.2 ± 1.11 µM	11.4 ± 1.36 µM	< 1		10.1 ± 0.73 µM	6.53 ± 0.34 µM	CCOc1cc2ncc(C#N)c(Nc3ccc(F)c(Cl)c3)c2cc1N [FED14]		12.2 ± 0.6 µM	8.7 ± 0.7 µM	14.8 ± 0.7 µM	14.8 ± 0.7 µM	
